Twelve compounds from patent US20250171486A1, “N4-ISOBUTYRYLOXYCYTIDINE ANALOG SYNTHESIS AND COMPOSITION FOR TREATING VIRAL INFECTION COMPRISING ANTI-VIRAL USE THEREOF” (Dong-A University Research Foundation for Industry-Academy …, priority 2022, published 2025) can be followed below.

The subject of data set [1] is Influenza virus A/Puerto Rico/8/34 (PR8; H1N1). The data set is described as follows: organism not typed. The data set is classed as cell-based. Conditions: for EC50: read-out: Antiviral activity (EC50) Flu A H1N1 PR8; for Selectivity index Flu A H1N1 PR8: MDCK cells.
In data set [2] the test system is Influenza virus A/Hong Kong/8/68 (HK: H3N2). In words: organism not typed. The data set is classed as cell-based. The note with it: for Selectivity index Flu A H3H2 Hong Kong: MDCK cells; for EC50: read-out: Antiviral activity (EC50) Flu A H3N2 Hong Kong.
Data set [3] relates to Influenza virus B/Lee/40 (Lee). In words: microbe, parasite or virus in culture. The data set is classed as cell-based. The note with it: for EC50: read-out: Antiviral activity (EC50) Flu B Lee; for Selectivity index Flu B Lee: MDCK cells.
The nature of data set [4]: in vitro. Conditions: dog.
For data set [5], the system named is DENV-2 replicon. The data set is described as follows: microbe, parasite or virus in culture. The format is cell-based. Conditions: for S.I., Selectivity index = CC50/EC50: DENV-2, BHK-21 cells.
For data set [6], the system named is SARS-COV-2 (BetaCoV/Korea/KCDC03/2020). The data set is described as follows: Image-based anti-SARS-COV-2 assay in Vero cells (anti-spike antibody). The data set is classed as cell-based.
Data set [7] concerns Vero cells. The note with it: for CC50: read-out: CC50, cytotoxicity, 2 days.
A short description of data set [8]: in vitro. Conditions: for CC50: African green monkey.
A short description of data set [9]: Cytotoxicity in mock-infected MDCK cells (MTT). The note with it: dog, mock-infected MDCK cells.
Data set [10] relates to DENV-2 replicon BHK-21 (DENV2-BHK) cells. In words: MTT cytotoxicity assay in DENV-2 replicon BHK-21 cells. Conditions: for CC50: read-out: CC50, 50% cytotoxic concentration, BHK-21 cells, MTT.
Experiment in data set [11]: as above
The note with it: hamster.

Data set [12] concerns MDCK cells. In words: Cytotoxicity in mock-infected MDCK cells (MTT). The note with it: read-out: Toxicity (CC50); MDCK cells, 3 days.
[13] abbreviates: unidentified influenza virus, MDCK, 72 h.
The mark [14] stands for this setting: Dengue virus, DENV2, BHK-21, read-out: EC50, 50% effective concentration, anti-DENV-2 activity.
Where [15] appears, read: Severe acute respiratory syndrome coronavirus 2, Vero, 48 h.
Setting [16] is: read-out: EC50, 50% effective concentration, anti-DENV-2 activity, DENV-2 replicon BHK-21 cells, luciferase.

Read-outs that look alike come from different tables or passages of the source.

Regarding `NC12CC3CC(CC(C3)C1)C2` [AMT, Amantadine], the EC50 in [1] (MDCK, 72 h) was over 100 µM; in [2] (MDCK, 72 h), 6.4 µM; in [3] (setting [13]), over 100 µM. For the same compound, in data set [2], the “Selectivity index Flu A H3H2 Hong Kong” value is over 15.6. Moreover, the CC50 in data set [4] is over 100 µM.
With `CC(C)C(=O)ONc1ccn([C@@H]2O[C@H](CO)[C@@H](O)[C@H]2O)c(=O)n1` [Compound 5a, 1-((2R,3R,4S,5R)-3,4-Dihydroxy-5-(hydroxymethyl)tetrahydrofuran-2-yl)-4-((isobutyryloxy)amino)pyrimidin-2 (1H)-one], in [5], the “S.I., Selectivity index = CC50/EC50” value worked out at 2.74. The “EC50 value improved over the ester precursor 7” value in data set [5] (DENV-2 replicon) is listed as “about 6 fold”. The “EC50 value increased compared to the parent Compound 6” value in data set [5] (DENV-2 replicon) is “about 2 fold”. In addition, the EC50 in [5] (setting [14]) stood at 3.95 µM; in data set [6] (setting [15]) it was 3.5 µM; in data set [1] (MDCK, 72 h) it was 5.8 µM; in [2] (MDCK, 72 h), 7.3 µM; in data set [3] (setting [13]) it was 3.4 µM. Also, the “Antiviral activity improved compared to the parent Compound 6” value in data set [6] (SARS-COV-2) is recorded as “about 5 times”. In data set [6] (SARS-COV-2), the “Antiviral activity improved over the other ester precursor 7” value is 3.5 fold. Also, the “Selectivity index Flu A H1N1 PR8” value in data set [1] is over 17.2. In addition, the “Selectivity index Flu A H3H2 Hong Kong” value in [2] is over 13.7. Also, the “Selectivity index Flu B Lee” value in data set [3] was over 29.4. The “Cytotoxicity improved compared to the parent Compound 6” value in data set [7] (SARS-COV-2 test) was at least 6 times. The CC50 in data set [8] was over 100 µM; in [10], 10.8 µM. Moreover, the CC50 at 2 days in [8] (chlorocebus sabaeus) is over 100 µM. The CC50 at 3 days in data set [9] is over 100 µM. In addition, in data set [10] (DENV-2 replicon cells), the “Cytotoxicity reduced compared to the parent Compound 6” value is 2 fold.
`O=c1nc(NCCO)ccn1[C@@H]1O[C@H](CO)[C@@H](O)[C@H]1O` [Compound 5b, 1-((2R,3R,4S,5R)-3,4-Dihydroxy-5-(hydroxymethyl)tetrahydrofuran-2-yl)-4-((2-hydroxyethyl)amino)pyrimidin-2 (1H)-one]: the “Anti-DENV activity in replication assays (in words)” value in data set [5] (DENV-2 replicon) is reported as “did not exhibit significant anti-DENV activity”. For the same compound, the EC50 in data set [5] (setting [14]) was over 100 µM; in data set [6] (setting [15]) it was over 100 µM; in data set [1] (MDCK, 72 h) it was over 100 µM; in data set [2] (MDCK, 72 h), over 100 µM; in data set [3] (setting [13]), over 100 µM. Further, the “Biological SARS-COV-2 activity (in words)” value in [6] (Vero cells) is listed as “did not show significant biological SARS-COV-2 activity”. In data set [1] (Flu A (H1N1, H3N2) and Flu B together), the “Anti-Flu A/B activity (in words)” value is “did not exhibit significant anti-Flu A/B activity”. For the same compound, the CC50 in data set [8] and in data set [11] was over 100 µM throughout. The compound also came in with a CC50 at 3 days in [4] of over 100 µM.
Consider `CCOC(=O)CNc1ccn([C@@H]2O[C@H](CO)[C@@H](O)[C@H]2O)c(=O)n1` [Compound 5c, Ethyl(1-((2R,3R,4S,5R)-3,4-dihydroxy-5-(hydroxymethyl)tetrahydrofuran-2-yl)-2-oxo-1,2-dihydropyrimidin-4-yl)glycinate], for which the EC50 in data set [5] (setting [16]), in data set [6], in [1], in [2] and in data set [3] was over 100 µM in each case. The CC50 in data set [7], in data set [12] and in [10] was over 100 µM each time.
As to `CCOC(=O)[C@H](C)Nc1ccn([C@@H]2O[C@H](CO)[C@@H](O)[C@H]2O)c(=O)n1` [Compound 5d, Ethyl(1-((2R,3R,4S,5R)-3,4-dihydroxy-5-(hydroxymethyl)tetrahydrofuran-2-yl)-2-oxo-1,2-dihydropyrimidin-4-yl)-L-alaninate], the EC50 in data set [5] (setting [16]), in data set [6], in data set [1], in data set [2] and in data set [3] was over 100 µM throughout. Besides, the CC50 in data set [7], in [12] and in data set [10] was over 100 µM throughout.
Regarding `CCOC(=O)[C@H](CC(C)C)Nc1ccn([C@@H]2O[C@H](CO)[C@@H](O)[C@H]2O)c(=O)n1` [Compound 5e, Ethyl(1-((2R,3R,4S,5R)-3,4-dihydroxy-5-(hydroxymethyl)tetrahydrofuran-2-yl)-2-oxo-1,2-dihydropyrimidin-4-yl)-L-leucinate], the EC50 in data set [5] (setting [16]), in data set [6], in data set [1], in data set [2] and in data set [3] was over 100 µM each time. Moreover, the CC50 in [7], in [12] and in [10] was over 100 µM throughout.
Regarding `CCOC(=O)[C@H](Cc1ccccc1)Nc1ccn([C@@H]2O[C@H](CO)[C@@H](O)[C@H]2O)c(=O)n1` [Compound 5f, Ethyl(1-((2R,3R,4S,5R)-3,4-dihydroxy-5-(hydroxymethyl)tetrahydrofuran-2-yl)-2-oxo-1,2-dihydropyrimidin-4-yl)-L-phenylalaninate], the EC50 in [5] (setting [16]), in data set [6], in [1], in [2] and in data set [3] was over 100 µM throughout. For the same compound, the CC50 in data set [7], in data set [12] and in [10] was over 100 µM in each case.
`O=c1nc(NO)ccn1[C@@H]1O[C@H](CO)C(O)[C@@H]1O` (stereo partly drawn) [Compound 6, β-D-N^4-hydroxycytidine, reference compound]: the “S.I., Selectivity index = CC50/EC50” value in data set [5] is listed as 2.02. For the same compound, the EC50 in data set [5] (setting [14]) was 2.84 µM; in data set [6] (setting [15]), over 16.5 µM; in [1] (MDCK, 72 h) it was 1.7 µM; in data set [2] (MDCK, 72 h), 2.3 µM; in data set [3] (setting [13]), under 1.2 µM. In addition, the “Selectivity index Flu A H1N1 PR8” value in [1] is over 58.8. In data set [2], the “Selectivity index Flu A H3H2 Hong Kong” value is on record as over 43.5. Besides, the values for the CC50 in data set [8] and in [11] were 16.5 µM and 5.75 µM, respectively. The CC50 at 3 days in [4] was over 100 µM.
For `CC(C)C(=O)OC[C@H]1O[C@@H](n2ccc(NO)nc2=O)[C@@H](O)C1O` (stereo partly drawn) [Compound 7, reference compound], in data set [5], the “S.I., Selectivity index = CC50/EC50” value stood at 1.81. Also, the EC50 in data set [5] (setting [14]) worked out at 23.4 µM; in [6] (setting [15]), 11.8 µM; in data set [1] (MDCK, 72 h), 6.6 µM; in data set [2] (MDCK, 72 h), 6 µM; in data set [3] (setting [13]), 23.8 µM. Also, the “Selectivity index Flu A H1N1 PR8” value in [1] was over 15.2. Besides, the “Selectivity index Flu A H3H2 Hong Kong” value in [2] is over 16.7. The “Selectivity index Flu B Lee” value in data set [3] is listed as over 4.2. Further, the CC50 in data set [8] is over 100 µM; in data set [11], 42.2 µM. The compound further yielded a CC50 at 3 days in [9] of over 100 µM.
Consider `NC(=O)c1nc(F)cnc1O` [Compound T-705, 6-fluoro-3-hydroxy-2-pyrazinecarboxamide, reference compound], for which the EC50 in [1] (MDCK, 72 h) worked out at 3.2 µM; in [2] (MDCK, 72 h), 8.5 µM; in [3] (setting [13]) it was 7.6 µM. Moreover, in data set [3], the “Selectivity index Flu B Lee” value was over 13.2. This compound also came in with a CC50 at 3 days in data set [9] of over 100 µM.
Consider `NC(=O)c1ncn([C@@H]2O[C@H](CO)[C@@H](O)[C@H]2O)n1` [RBV, Ribavirin, reference compound], for which the EC50 in data set [5] (setting [14]) was determined as 1.16 µM; in [3] (setting [13]), 33.3 µM. Also, in [10], the CC50 was found to be 5.46 µM.
Consider `CCC(CC)COC(=O)[C@H](C)N[P@](=O)(OC[C@H]1O[C@@](C#N)(c2ccc3c(N)ncnn23)[C@H](O)[C@@H]1O)Oc1ccccc1` [Remdesivir, reference compound], for which the CC50 in data set [8] was over 100 µM.
